The values that follow come from patent US8252766B2 (CBT Development Limited, priority 2002, dated 2012).

The subject of data set [1] is static allodynia. As to the kind of experiment: static allodynia in a model of neuropathic pain. The class given is in vivo. Here is the method: Spongosine and gabapentin were administered (p.o.) in different proportions as indicated in the drawing. The total dose administered is shown on the horizontal axis, and the paw withdrawal threshold (PWT) on the vertical axis. The predicted anti-hyperalgesic effect (derived from the dose response curves obtained with each agent alone) if the effects of the two compounds are additive is shown (●). The observed effects are indicated by (▪).

Data set [2] deals with carrageenan-induced oedema. Particulars: rats; inhibition of carrageenan-induced oedema in a rat paw; cited from earlier work. In general terms: In the carrageenan paw model, swelling and tenderness develop within hours.
The conditions of data set [3]: rats; cited from earlier work.
Data set [4] deals with normal physiological nociception. As to the kind of experiment: normal physiological nociception. The data set is classed as in vivo. Particulars: after administration of spongosine.
Data set [5] can be described thus: blood pressure and heart rate by implantable radiotelemetry. The class given is in vivo, rat. The following applies: 0.624 mg/kg p.o., normal rats. An excerpt:
An implantable radiotelemetry device was placed in the abdominal cavity of 6 rats per group. The pressure catheter of the device was inserted in the abdominal aorta and two electrodes tunnelised under the skin in a lead II position (left side of abdominal cavity/right shoulder). Individual rats were placed in their own cage on a radioreceptor (DSI) for data acquisition. A: blood pressure, B; heart rate.

Data set [6] deals with thermal hyperalgesia caused by chronic constriction injury. The data set can be described thus: thermal hyperalgesia caused by chronic constriction injury of the rat sciatic nerve. The data set is classed as in vivo. An excerpt:
After approximately two weeks the rats developed thermal hyperalgesia in the operated leg as judged by the difference in paw withdrawal latencies of the right and left paws.

Data set [7] has as its system carrageenan (CGN) induced thermal hyperalgesia. As to the kind of experiment: carrageenan induced thermal hyperalgesia (CITH). The data set is classed as in vivo. On the procedure:
Carrageenan (2%, 10 microliters) was administered into the right hind paw. A heat source was placed close to the treated and untreated hind paws, and the difference in the paw withdrawal latencies is shown. Spongosine was administered at the same time as carrageenan.

Each structure is given as a SMILES string.

`COc1nc(N)c2ncn([C@@H]3O[C@H](CO)[C@@H](O)[C@H]3O)c2n1` [Spongosine, 2-methoxyadenosine]: the “inhibition of static allodynia (paw withdrawal threshold, PWT)” value (from here on “inhibition of static allodynia”) in data set [1] (1.2 mg/kg p.o., absence of naloxone) was “inhibits”. Further, the “inhibition of static allodynia” value in data set [1] (1.2 mg/kg p.o., presence of naloxone 1 mg/kg s.c.) was “inhibits”. Also, the “inhibition of static allodynia” value in data set [1] (p.o., dose response, Example 5) was “inhibit”. The anti-inflammatory activity result in data set [2] was “anti-inflammatory activity”. For the same compound, in data set [3], the hypotensive activity entry is “hypotensive”, the hypothermic activity result is “hypothermic” and the muscle relaxant activity result is “muscle relaxant”. For the same compound, in data set [4], the “analgesic effect on normal physiological nociception” value was “No analgesic effect”. Besides, in data set [5], the “effect on blood pressure” value is “no significant effect” and the “effect on heart rate” value was “no significant effect”. Moreover, the “inhibition of thermal hyperalgesia (difference in paw withdrawal latencies)” value in data set [6] (0.624 mg/kg p.o., rat, about two weeks after sciatic nerve ligation) is given as “inhibits”. Besides, the “efficacy relative to carbamazepine” value in data set [6] (spongosine 0.624 mg/kg p.o. versus carbamazepine 100 mg/kg s.c.) is on record as “as, or more, effective”. In addition, the “inhibition of carrageenan induced thermal hyperalgesia (difference in paw withdrawal latencies)” value in data set [7] (0.624 mg/kg p.o., given at the same time as carrageenan (2%, 10 microliters, right hind paw)) is recorded as “inhibits”. Moreover, in data set [7] (spongosine 0.624 mg/kg p.o. versus indomethacin 3 mg/kg po), the “efficacy relative to indomethacin” value was “comparable efficacy”.
Regarding `NCC1(CC(=O)O)CCCCC1` [gabapentin, reference compound], the “inhibition of static allodynia” value in data set [1] (p.o., dose response, Example 5) was “inhibit”.
